Here are results for one molecule from publication PMC2803041 (Nature, 2009).

One experiment addresses T1, His-PYR1 with GST-HAB1 (Arabidopsis thaliana, UniProt O49686).
T1 sequence (O49686 1-191): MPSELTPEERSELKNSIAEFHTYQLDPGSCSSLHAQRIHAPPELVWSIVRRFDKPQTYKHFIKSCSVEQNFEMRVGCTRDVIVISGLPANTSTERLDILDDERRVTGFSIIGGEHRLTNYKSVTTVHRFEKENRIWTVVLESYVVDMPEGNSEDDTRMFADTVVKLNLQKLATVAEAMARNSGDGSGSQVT
T1 sequence (Q9CAJ0 1-511 partner): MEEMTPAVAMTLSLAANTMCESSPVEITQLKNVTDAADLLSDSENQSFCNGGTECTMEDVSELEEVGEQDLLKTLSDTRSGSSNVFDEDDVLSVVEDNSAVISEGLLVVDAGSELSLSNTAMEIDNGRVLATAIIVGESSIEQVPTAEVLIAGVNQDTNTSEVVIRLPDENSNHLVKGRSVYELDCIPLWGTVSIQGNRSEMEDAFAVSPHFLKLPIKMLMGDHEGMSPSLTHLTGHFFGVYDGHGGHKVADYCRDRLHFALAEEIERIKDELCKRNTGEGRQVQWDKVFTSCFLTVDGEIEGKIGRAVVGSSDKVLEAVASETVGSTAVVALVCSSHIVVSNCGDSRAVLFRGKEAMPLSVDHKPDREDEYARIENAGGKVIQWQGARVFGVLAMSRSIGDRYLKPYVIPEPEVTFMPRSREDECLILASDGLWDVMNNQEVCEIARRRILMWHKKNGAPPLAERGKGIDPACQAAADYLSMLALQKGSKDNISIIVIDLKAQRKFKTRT
As to the kind of experiment: in vitro reconstitution, radiometric kinase assay. The experiment is classed as biochemical. To be noted: HAB1 in place of ABI1.

Another experiment concerns the target T2, His-PYR1 with GST-ABI1 (Arabidopsis thaliana, UniProt O49686).
T2 sequence (O49686 1-191): T1 sequence (O49686 1-191)
T2 sequence (P49597 1-434 partner): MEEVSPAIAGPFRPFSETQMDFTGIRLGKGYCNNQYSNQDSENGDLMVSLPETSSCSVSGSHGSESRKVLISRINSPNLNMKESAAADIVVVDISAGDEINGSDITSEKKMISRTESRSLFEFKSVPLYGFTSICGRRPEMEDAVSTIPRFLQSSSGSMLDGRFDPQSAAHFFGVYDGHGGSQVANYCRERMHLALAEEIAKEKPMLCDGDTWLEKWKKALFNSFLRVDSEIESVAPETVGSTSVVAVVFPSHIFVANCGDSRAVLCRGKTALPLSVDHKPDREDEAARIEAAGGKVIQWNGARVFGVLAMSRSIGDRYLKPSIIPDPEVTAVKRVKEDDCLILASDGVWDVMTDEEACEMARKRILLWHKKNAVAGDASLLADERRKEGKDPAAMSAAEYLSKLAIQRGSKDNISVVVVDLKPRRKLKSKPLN
Put plainly: in vitro reconstitution, radiometric kinase assay. Format: biochemical.

On to `CC1=CC(=O)CC(C)(C)C1(O)/C=C/C(C)=C\C(=O)O` (stereo in doubt) [(+)-ABA], for which the “in vitro reconstitution, radiometric kinase assay” value at His-PYR1 with GST-HAB1 is “reconstitution was also achieved when the PP2C protein HAB1 was used instead of ABI1”. The EC50 at His-PYR1 with GST-ABI1 is 800 nM.

Usually EC50 stands for the concentration needed to bring the measured effect to its halfway point.
